Assay results taken from patent US20220041559A1, “BENZO-AND PYRIDO-PYRAZOLES AS PROTEIN KINASE INHIBITORS” (ROTTAPHARM BIOTECH S.R.L., priority 2019, published 2022).
Read-outs that look alike come from different tables or passages of the source.

What was measured:
[1] = molecular target: T1, VEGFR2 (KDR) kinase (Homo sapiens, UniProt P35968); experiment: ADP-Glo in vitro kinase assay, VEGFR2 kinase inhibition; assay type: biochemical; settings: ATP 50 μM, 30 minutes at room temperature
T1 construct: purchased SignalChem
T1 sequence (P35968 20-1356): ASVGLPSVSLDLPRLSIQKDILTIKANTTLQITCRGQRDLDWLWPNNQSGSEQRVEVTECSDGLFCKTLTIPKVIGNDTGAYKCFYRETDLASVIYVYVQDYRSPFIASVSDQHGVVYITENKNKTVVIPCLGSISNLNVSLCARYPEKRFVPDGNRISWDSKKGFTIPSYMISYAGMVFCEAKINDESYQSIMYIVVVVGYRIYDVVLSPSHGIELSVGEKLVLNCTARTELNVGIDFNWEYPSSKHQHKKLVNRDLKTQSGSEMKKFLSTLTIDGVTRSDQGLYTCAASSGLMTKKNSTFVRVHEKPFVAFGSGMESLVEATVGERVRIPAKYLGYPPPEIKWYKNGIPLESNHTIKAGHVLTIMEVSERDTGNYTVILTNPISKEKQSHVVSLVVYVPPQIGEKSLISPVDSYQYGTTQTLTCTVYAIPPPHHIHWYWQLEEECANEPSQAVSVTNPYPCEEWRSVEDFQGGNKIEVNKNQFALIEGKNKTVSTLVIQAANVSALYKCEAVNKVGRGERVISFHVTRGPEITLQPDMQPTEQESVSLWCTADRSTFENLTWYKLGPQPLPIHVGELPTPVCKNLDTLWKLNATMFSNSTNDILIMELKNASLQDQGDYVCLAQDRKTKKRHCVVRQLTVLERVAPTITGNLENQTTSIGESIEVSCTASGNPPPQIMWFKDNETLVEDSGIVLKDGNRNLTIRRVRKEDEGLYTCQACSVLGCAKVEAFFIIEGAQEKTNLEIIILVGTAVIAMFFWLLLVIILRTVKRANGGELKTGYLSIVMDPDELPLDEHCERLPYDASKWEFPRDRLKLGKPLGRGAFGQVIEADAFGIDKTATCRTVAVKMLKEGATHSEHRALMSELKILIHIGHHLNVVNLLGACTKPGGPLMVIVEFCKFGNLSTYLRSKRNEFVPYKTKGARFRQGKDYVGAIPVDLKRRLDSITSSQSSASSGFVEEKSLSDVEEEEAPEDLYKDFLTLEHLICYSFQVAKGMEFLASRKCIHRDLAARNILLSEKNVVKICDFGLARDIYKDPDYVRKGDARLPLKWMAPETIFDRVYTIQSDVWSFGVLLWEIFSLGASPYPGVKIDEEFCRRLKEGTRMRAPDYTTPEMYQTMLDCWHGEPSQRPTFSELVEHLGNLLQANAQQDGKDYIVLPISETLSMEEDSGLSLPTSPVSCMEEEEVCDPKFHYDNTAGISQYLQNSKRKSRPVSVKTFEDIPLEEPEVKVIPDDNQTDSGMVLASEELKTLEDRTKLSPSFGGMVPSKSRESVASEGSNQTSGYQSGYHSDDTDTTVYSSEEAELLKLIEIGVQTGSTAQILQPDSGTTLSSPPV
Experimental: (§1) The ADP-Glo™ Kinase Assay (Promega), monitoring ADP produced in the kinase reaction, was performed in two steps. In the first one, after the kinase reaction, the ADP-Glo™ Reagent is added to terminate the kinase reaction and deplete the remaining ATP. In the second step, the Kinase Detection Reagent is added to simultaneously convert ADP to ATP (ATPn or newly synthesized ATP) and introduce luciferase and luciferin, allowing the ATPn to be measured (luciferase/luciferin reaction). The amount of light generated correlates with the amount of ATPn (indirectly with the ADP produced in kinase reaction).
Kinase reaction was performed in 10 μl in a white 384-well plate, inhibitor solutions in DMSO/Kinase buffer (40 mM Tris-Cl, 20 mM MgCl2, 0.1 mg/ml BSA, 50 μM DTT, pH 7.5) and VEGFR2 (KDR) kinase in Kinase buffer (SignalChem, 0.5 ng/μl final concentration in assay) were pre-incubate 15 minutes at room temperature. At the kinase concentration selected, a signal-to negative control ratio >10 was calculated, according to supplier indication. In samples representing the Total enzymatic activity or the negative control (no enzyme), inhibitor solution was replaced by diluents (1 DMSO in kinase buffer, final concentration) or ultra-pure water, respectively.
The range of inhibitor concentrations was from 10^−11 M up to 3×10^−6 M (final concentration in assay) and each experimental point was performed in duplicate.
To start the reaction, a substrate/ATP mix (50 μM final concentration, near to ATP Km value) was added to each sample and after 30 minutes incubation at room temperature, ADP-Glo™ Reagent and Kinase Detection Reagent, incubated in sequence according to the respective incubation time and supplier indication, allowed to stop and develop the kinase reaction. The luminescence was measured with a plate-reading luminometer (Envision 2104 Multilabel reader, PerkinElmer). The percentage of inhibition was calculated towards the Total enzymatic activity and the corresponding curves were analyzed by non linear curve fitting (GraphPad software, version 7 for Windows), allowing to calculate the IC50 value±standard error of the value

[2] = molecular target: T2, YES kinase (Homo sapiens, UniProt P07947); experiment: ADP-Glo in vitro kinase assay, YES kinase inhibition; assay type: biochemical; settings: ATP 50 μM, 30 minutes at room temperature
T2 construct: purchased Thermo Fisher
T2 sequence (P07947 whole entry): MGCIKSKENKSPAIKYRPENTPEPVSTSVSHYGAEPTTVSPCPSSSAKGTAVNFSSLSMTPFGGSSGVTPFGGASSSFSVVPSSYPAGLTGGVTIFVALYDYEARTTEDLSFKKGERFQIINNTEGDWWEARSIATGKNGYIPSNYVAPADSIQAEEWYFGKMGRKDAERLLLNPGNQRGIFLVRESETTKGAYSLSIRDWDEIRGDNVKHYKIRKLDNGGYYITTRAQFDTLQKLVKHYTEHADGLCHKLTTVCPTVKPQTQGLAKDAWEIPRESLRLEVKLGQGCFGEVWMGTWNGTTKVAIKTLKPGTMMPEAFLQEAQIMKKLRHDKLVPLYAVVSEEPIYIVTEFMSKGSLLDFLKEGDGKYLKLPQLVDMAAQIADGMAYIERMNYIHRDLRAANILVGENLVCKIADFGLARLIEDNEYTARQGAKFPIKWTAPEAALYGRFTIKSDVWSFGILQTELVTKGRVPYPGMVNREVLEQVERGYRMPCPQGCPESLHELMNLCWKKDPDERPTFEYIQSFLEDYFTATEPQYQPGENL
Experimental: as §1
Kinase reaction was performed in 10 μl in a white 384-well plate, inhibitor solutions in DMSO/Kinase buffer (40 mM Tris-Cl, 20 mM MgCl2, 0.1 mg/ml BSA, 50 μM DTT, pH 7.5) and YES kinase in Kinase buffer (Thermo Fisher, 0.5 ng/μl final concentration in assay) were pre-incubate 15 minutes at room temperature. At the kinase concentration selected, a signal-to negative control ratio >10 was calculated, according to supplier indication. […]
The range of inhibitor concentrations was from 10^−10 M up to 10^−5 M (final concentration in assay) and each experimental point was performed in duplicate. […] The luminescence was measured with a plate-reading luminometer (Envision 2104 Multilabel reader, PerkinElmer). […]

[3] = Pharmacokinetics in CD1 mice, iv and po; assay type: in vivo; settings: 3 mg/kg; for Kp: brain and plasma, read-out: B/P (brain to plasma ratio); for half-life: read-out: t½* (converted)
[4] = molecular target: T3, FYN (Homo sapiens, UniProt P06241); experiment: Z'-LYTE in vitro kinase assay, FYN kinase inhibition; assay type: biochemical
T3 construct: purchased CarnaBioscience
T3 sequence (P06241 whole entry): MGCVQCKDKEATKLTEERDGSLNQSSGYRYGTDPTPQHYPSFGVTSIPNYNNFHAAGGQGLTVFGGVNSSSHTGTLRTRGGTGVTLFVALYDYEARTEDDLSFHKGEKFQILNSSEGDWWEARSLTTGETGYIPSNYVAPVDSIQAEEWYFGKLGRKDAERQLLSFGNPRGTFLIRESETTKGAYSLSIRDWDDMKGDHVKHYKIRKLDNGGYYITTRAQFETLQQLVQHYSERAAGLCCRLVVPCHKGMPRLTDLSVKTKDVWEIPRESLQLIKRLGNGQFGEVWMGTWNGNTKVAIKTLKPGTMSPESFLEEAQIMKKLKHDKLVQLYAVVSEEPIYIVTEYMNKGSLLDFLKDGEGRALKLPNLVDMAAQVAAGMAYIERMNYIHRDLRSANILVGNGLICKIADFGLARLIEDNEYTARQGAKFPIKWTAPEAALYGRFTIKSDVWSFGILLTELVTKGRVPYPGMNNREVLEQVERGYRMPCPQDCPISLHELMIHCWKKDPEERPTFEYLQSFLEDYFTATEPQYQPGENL
Summary of the method: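 Active FYN incubated with Z′-LYTE Tyr 2 peptide, near-Km ATP and compound (10^−10 to 10^−5 M final, 1% DMSO) in 50 mM Hepes pH 7.5, 10 mM MgCl2, 1 mM EGTA, 0.01% Brij-35, 60 min at 25° C. Protease development then coumarin/fluorescein FRET readout gives % phosphorylation; IC50 by non-linear fitting.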

Structure (SMILES): CN1CCC(c2ccc(C(=O)Nc3n[nH]c4nc(Nc5ccccc5F)ccc34)cc2)CC1 [Compound 5, N-(6-((2-fluorophenyl)amino)-1H-pyrazolo[3,4-b]pyridin-3-yl)-4-(1-methylpiperidin-4-yl)benzamide]
- IC50 [1]: 82 nM
- IC50 [2]: 3.6 nM
- Tlast ([3]; iv): 24 h
- Kp ([3]; mouse, calculated on AUC iv): 1.2
- Kp ([3]; mouse, calculated on AUC po): 1.4
- AUC(0-inf) ([3]; mouse, plasma, iv): 1640 ng·h/mL
- AUC(0-t) ([3]; mouse, plasma, iv): 1620 ng·h/mL
- clearance ([3]; mouse, plasma, iv, read-out: CLp): 30.4 mL/min/kg
- Vd ([3]; mouse, plasma, iv, read-out: Vz): 10.2 L/kg
- half-life ([3]; mouse, plasma, iv): 3.9 h
- AUC(0-inf) ([3]; mouse, plasma, po): 1180 ng·h/mL
- AUC(0-t) ([3]; mouse, plasma, po): 1170 ng·h/mL
- Cmax ([3]; mouse, plasma, po): 331 nM
- Tmax ([3]; mouse, plasma, po): 2 h
- bioavailability ([3]; mouse, plasma, po): 72%
- half-life ([3]; mouse, plasma, po): 4 h
- Tlast ([3]; po): 24 h
- FYN kinase inhibition, result in words ([4]; Table 17): more active
- IC50 ([4]; near-Km ATP, 60 minutes at 25° C.): 69 nM
